Converted amounts (≈) assume the structure as drawn.

Data set [1] has as its system Candida albicans. Put plainly: Antifungal activity against Candida albicans CGMCC 2.2086 assessed as inhibition of fungal growth incubated for 48 hrs in presence of KCl. The class given is functional.
In data set [2] the test system is Candida albicans. Put plainly: Antifungal activity against Candida albicans SP3902 assessed as inhibition of fungal growth incubated for 48 hrs. The class given is functional.
For data set [3], the system named is Candida albicans. The data set can be described thus: Antifungal activity against Candida albicans CGMCC 2.2086 assessed as inhibition of fungal growth incubated for 48 hrs in presence of NaCl. The class given is functional.
The subject of data set [4] is Candida albicans. The data set can be described thus: Antifungal activity against Candida albicans CGMCC 2.2086 assessed as inhibition of fungal growth incubated for 48 hrs in presence of MgCl2. The class given is functional.
Data set [5] concerns Candida albicans. Put plainly: Antifungal activity against Candida albicans SP3903 assessed as inhibition of fungal growth incubated for 48 hrs. The class given is functional.
For data set [6], the system named is Candida albicans. Put plainly: Antifungal activity against Candida albicans 14936 assessed as inhibition of fungal growth incubated for 48 hrs. The class given is functional.
Data set [7] has as its system Candida albicans. Put plainly: Antifungal activity against Candida albicans SP3931 assessed as inhibition of fungal growth incubated for 48 hrs. The class given is functional.
In a further data set the test system is Candida parapsilosis. Put plainly: Antifungal activity against Candida parapsilosis CGMCC 2.3989 assessed as inhibition of fungal growth incubated for 48 hrs. The format is functional. Particulars: Lodderomyces parapsilosis.
Data set [8] in a line: Hemolytic activity in human red blood cells assessed as hemolysis rate at 512 uM incubated for 1 hr relative to control. The class given is toxicity, cell-based, Erythrocyte. Particulars: read-out: Activity.
Data set [9] has as its system Candida albicans. The data set can be described thus: Antifungal activity against Candida albicans CGMCC 2.2086 assessed as inhibition of fungal growth incubated for 48 hrs. The class given is functional.
Data set [10] is described as follows: Stability of the compound in NH4Cl assessed as change in secondary structure by CD spectra analysis. The format is physicochemical.
The test system of the next data set is Candida tropicalis. Put plainly: Antifungal activity against Candida tropicalis CGMCC 2.1975 assessed as inhibition of fungal growth incubated for 48 hrs. The format is functional.
Data set [11] has as its system Candida albicans. Put plainly: Antifungal activity against Fluconazole-resistant Candida albicans 58288 assessed as inhibition of fungal growth incubated for 48 hrs. The class given is functional.
Data set [12] concerns Candida albicans. Put plainly: Antifungal activity against Candida albicans CGMCC 2.2086 assessed as inhibition of fungal growth incubated for 48 hrs in presence of FeCl3. The format is functional.
The test system of data set [13] is Candida albicans. The data set can be described thus: Antifungal activity against Candida albicans 17546 assessed as inhibition of fungal growth incubated for 48 hrs. The format is functional.
The nature of data set [14]: Stability of the compound in KCl assessed as change in secondary structure by CD spectra analysis. The format is physicochemical.
Data set [15] is described as follows: Stability of the compound in ZnCl2 assessed as change in secondary structure by CD spectra analysis. The format is physicochemical.
Data set [16] can be described thus: Stability of the compound in NaCl assessed as change in secondary structure by CD spectra analysis. The class given is physicochemical.
Data set [17] deals with Candida albicans. Put plainly: Antifungal activity against Candida albicans CGMCC 2.2086 assessed as inhibition of fungal growth incubated for 48 hrs in presence of CaCl2. The format is functional.
For data set [18], the system named is Candida albicans. Put plainly: Antifungal activity against Fluconazole-resistant Candida albicans 56214 assessed as inhibition of fungal growth incubated for 48 hrs. The format is functional.
In data set [19] the test system is Candida albicans. The data set can be described thus: Antifungal activity against Candida albicans 56452 assessed as inhibition of fungal growth incubated for 48 hrs. The class given is functional.
Data set [20] in a line: Stability of the compound in CaCl2 assessed as change in secondary structure by CD spectra analysis. The class given is physicochemical.
A short description of data set [21]: Stability of the compound in MgCl2 assessed as change in secondary structure by CD spectra analysis. The format is physicochemical.
In data set [22] the test system is Candida albicans. The data set can be described thus: Antifungal activity against Candida albicans CGMCC 2.2086 assessed as inhibition of fungal growth incubated for 48 hrs in presence of NH4Cl. The format is functional.
Data set [23] relates to Candida albicans. Put plainly: Antifungal activity against Candida albicans CGMCC 2.2086 assessed as inhibition of fungal growth incubated for 48 hrs in presence of ZnCl2. The format is functional.
The nature of data set [24]: Hemolytic activity in human red blood cells assessed as hemolysis incubated for 1 hr. The format is toxicity, cell-based, Erythrocyte.
The nature of data set [25]: Stability of the compound in FeCl3 assessed as change in secondary structure by CD spectra analysis. The class given is physicochemical.
In data set [26] the test system is Candida albicans. The data set can be described thus: Antifungal activity against Candida albicans SP3876 assessed as inhibition of fungal growth incubated for 48 hrs. The format is functional.

One may read the HC50 as the concentration that lyses half of the red blood cells. `CC[C@H](C)[C@H](N)C(=O)N[C@H](C(=O)N[C@H](CCCNC(=N)N)C(=O)N[C@@H](CCCNC(=N)N)C(=O)N[C@@H](Cc1c[nH]cn1)C(=O)N[C@H](C(=O)N[C@H](C(=O)N[C@H](C(=O)N[C@H](C(=O)N[C@H](CCCNC(=N)N)C(=O)N[C@@H](CCCNC(=N)N)C(=O)N[C@@H](Cc1c[nH]cn1)C(=O)N[C@H](C(=O)N[C@H](C(N)=O)[C@@H](C)CC)[C@@H](C)CC)[C@@H](C)CC)[C@@H](C)CC)[C@@H](C)CC)[C@@H](C)CC)[C@@H](C)CC`: the MIC95 in the data set on Candida albicans [1] was 32 µM; in the data set on Candida albicans [2], 8 µM (≈ 14.6 µg/mL); in the data set with Candida albicans [3], > 64 µM; in the data set with Candida albicans [4], 64 µM; in the data set with Candida albicans [5] it was 64 µM (≈ 117 µg/mL); in the data set with Candida albicans [6] it was 32 µM (≈ 58.3 µg/mL). The MIC95 worked out at 16 µM (≈ 29.1 µg/mL) with Candida albicans [7]; 32 µM (≈ 58.3 µg/mL) in the data set on Candida parapsilosis; 16 µM (≈ 29.1 µg/mL) in the data set with Candida albicans [9]; 2 µM (≈ 3.64 µg/mL) with Candida tropicalis; 32 µM (≈ 58.3 µg/mL) with Candida albicans [11]; 64 µM in the data set on Candida albicans [12]. Moreover, the MIC95 in the data set with Candida albicans [13] is 64 µM (≈ 117 µg/mL); with Candida albicans [17], > 64 µM; in the data set on Candida albicans [18], 64 µM (≈ 117 µg/mL); with Candida albicans [19], 32 µM (≈ 58.3 µg/mL); with Candida albicans [22], 32 µM; in the data set with Candida albicans [23] it was 64 µM. Further, the MIC95 in the data set with Candida albicans [26] amounted to 32 µM (≈ 58.3 µg/mL). Moreover, the hemolysis at 1 h, 512 µM in data set [8] turned out to be 1.84%. For the same compound, the Stability result in [10] was “Stable”; in [14], “Stable”; in data set [15], “Stable”; in data set [16] it was “Unstable”; in data set [20] it was “Stable”; in data set [21], “Stable”. The Stability result in data set [25] is “Stable”. For the same compound, in [24], the HC50 at 1 h is > 512 µM.
With `CC(C)[C@H](N)C(=O)N[C@H](C(=O)N[C@H](CCCNC(=N)N)C(=O)N[C@@H](CCCNC(=N)N)C(=O)N[C@@H](Cc1c[nH]cn1)C(=O)N[C@H](C(=O)N[C@H](C(N)=O)C(C)C)C(C)C)C(C)C`, the MIC95 in the data set with Candida albicans [1], in the data set on Candida albicans [2], in the data set on Candida albicans [3], with Candida albicans [4], in the data set with Candida albicans [5] and in the data set with Candida albicans [6] was > 64 µM in each case. In addition, the MIC95 in the data set on Candida albicans [7] was > 64 µM; with Candida parapsilosis, > 64 µM; with Candida albicans [9] it was > 64 µM; with Candida tropicalis, 64 µM (≈ 55.2 µg/mL); in the data set on Candida albicans [11], > 64 µM; in the data set on Candida albicans [12], > 64 µM. Moreover, the MIC95 in the data set with Candida albicans [13], in the data set with Candida albicans [17], in the data set with Candida albicans [18], with Candida albicans [19], in the data set on Candida albicans [22] and in the data set on Candida albicans [23] was > 64 µM in each case. The MIC95 with Candida albicans [26] was > 64 µM. Further, in [8], the hemolysis at 1 h, 512 µM is -0.02%. Further, the Stability entry in data set [10] was “Stable”; in data set [14] it was “Stable”; in [15] it was “Stable”; in data set [16], “Unstable”; in [20] it was “Stable”; in [21], “Stable”. The Stability result in data set [25] is given as “Stable”. The HC50 at 1 h in data set [24] is > 512 µM.
Turning to `CC(=O)N1CCN(c2ccc(OCC3COC(Cn4ccnc4)(c4ccc(Cl)cc4Cl)O3)cc2)CC1` (stereo not drawn) [KETOCONAZOLE], the MIC95 with Candida albicans [2] was 2 µM (≈ 1.06 µg/mL); in the data set with Candida albicans [5], 4 µM (≈ 2.13 µg/mL); in the data set on Candida albicans [6], 4 µM (≈ 2.13 µg/mL); with Candida albicans [7] it was 4 µM (≈ 2.13 µg/mL); in the data set with Candida parapsilosis, 4 µM (≈ 2.13 µg/mL); in the data set on Candida albicans [9], 2 µM (≈ 1.06 µg/mL). Further, the MIC95 with Candida tropicalis was 2 µM (≈ 1.06 µg/mL); in the data set with Candida albicans [11], > 64 µM; with Candida albicans [13] it was 2 µM (≈ 1.06 µg/mL); with Candida albicans [18], > 64 µM; with Candida albicans [19] it was 1 µM (≈ 0.531 µg/mL); in the data set on Candida albicans [26], 16 µM (≈ 8.5 µg/mL).
